# Test results reported in patent US20250302832A1, “PYRAZINE DERIVATIVES AND USES THEREOF” (FOGHORN THERAPEUTICS INC., priority 2022, published 2025).
# Experiments:
# HiBit-BRM fusion protein = biological target: T1, HiBit-BRM fusion protein (Homo sapiens, UniProt P51531); experiment: HiBiT-BRM cell-based degradation assay (Nano-Glo HiBiT lytic detection, 24 h); settings: HeLa cell line expressing HiBiT-BRM; for DC50: read-out: BRM HiBit Degradation IC50
# T1 construct: expressed in transfected cells
# T1 sequence (P51531 whole entry, the tested form may be a part): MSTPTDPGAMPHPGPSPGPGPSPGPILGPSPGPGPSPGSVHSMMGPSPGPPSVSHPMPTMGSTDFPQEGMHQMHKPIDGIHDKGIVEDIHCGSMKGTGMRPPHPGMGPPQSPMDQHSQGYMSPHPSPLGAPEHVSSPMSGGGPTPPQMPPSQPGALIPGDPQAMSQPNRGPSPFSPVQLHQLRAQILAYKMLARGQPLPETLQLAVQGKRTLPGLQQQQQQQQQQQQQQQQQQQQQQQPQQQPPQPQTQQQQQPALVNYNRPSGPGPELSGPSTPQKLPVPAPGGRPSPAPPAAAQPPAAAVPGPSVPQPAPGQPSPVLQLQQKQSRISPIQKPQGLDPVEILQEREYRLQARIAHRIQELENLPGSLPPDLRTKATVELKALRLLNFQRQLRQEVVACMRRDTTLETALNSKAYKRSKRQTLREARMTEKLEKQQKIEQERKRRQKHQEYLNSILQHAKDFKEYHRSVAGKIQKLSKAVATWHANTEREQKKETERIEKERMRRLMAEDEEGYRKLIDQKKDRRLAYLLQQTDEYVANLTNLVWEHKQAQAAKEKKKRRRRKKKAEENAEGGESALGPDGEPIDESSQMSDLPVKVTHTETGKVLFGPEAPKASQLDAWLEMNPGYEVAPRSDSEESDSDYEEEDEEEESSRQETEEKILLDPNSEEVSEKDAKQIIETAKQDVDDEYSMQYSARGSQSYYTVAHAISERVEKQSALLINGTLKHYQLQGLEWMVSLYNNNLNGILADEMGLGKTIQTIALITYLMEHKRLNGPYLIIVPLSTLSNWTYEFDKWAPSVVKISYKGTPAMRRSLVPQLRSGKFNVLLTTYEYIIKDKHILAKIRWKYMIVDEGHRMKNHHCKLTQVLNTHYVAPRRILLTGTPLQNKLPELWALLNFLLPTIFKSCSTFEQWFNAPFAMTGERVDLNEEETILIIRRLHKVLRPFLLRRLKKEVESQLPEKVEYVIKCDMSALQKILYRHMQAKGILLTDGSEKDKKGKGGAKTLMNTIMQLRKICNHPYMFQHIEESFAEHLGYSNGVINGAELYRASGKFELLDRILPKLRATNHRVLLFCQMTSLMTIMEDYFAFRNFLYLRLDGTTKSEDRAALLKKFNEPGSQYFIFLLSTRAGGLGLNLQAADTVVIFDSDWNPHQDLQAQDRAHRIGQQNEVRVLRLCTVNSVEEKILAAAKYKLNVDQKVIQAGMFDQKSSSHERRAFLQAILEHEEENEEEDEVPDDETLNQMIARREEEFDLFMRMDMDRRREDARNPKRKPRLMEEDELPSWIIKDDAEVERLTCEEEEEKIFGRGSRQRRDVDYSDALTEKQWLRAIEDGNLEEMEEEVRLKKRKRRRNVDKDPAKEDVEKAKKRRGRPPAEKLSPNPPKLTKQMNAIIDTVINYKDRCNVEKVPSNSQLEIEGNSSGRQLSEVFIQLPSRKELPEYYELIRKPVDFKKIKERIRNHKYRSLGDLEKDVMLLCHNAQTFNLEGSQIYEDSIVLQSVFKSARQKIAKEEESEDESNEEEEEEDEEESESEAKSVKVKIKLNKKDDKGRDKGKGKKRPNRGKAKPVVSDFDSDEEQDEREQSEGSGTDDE
# How it was run: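 Stable HeLa HiBiT-BRM cells treated 24 h with compounds (10-point 3-fold dilutions, 30 μM final top dose, duplicate). HiBiT levels read by Nano-Glo lytic luminescence; % degradation normalised to DMSO (high control) and 2 μM reference BRM/BRG1 degrader (low control).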
# [1] = biological target: T2, HiBit-BRG1 fusion protein (Homo sapiens, UniProt P51532); experiment: HiBiT-BRG1 cell-based degradation assay (Nano-Glo HiBiT lytic detection, 24 h); settings: HeLa cell line expressing HiBit-BRG1 and LgBit; for Dmax: read-out: BRG1 HiBit Degradation Maximum (%)
# T2 construct: expressed in transfected cells
# T2 sequence (P51532 whole entry, the tested form may be a part): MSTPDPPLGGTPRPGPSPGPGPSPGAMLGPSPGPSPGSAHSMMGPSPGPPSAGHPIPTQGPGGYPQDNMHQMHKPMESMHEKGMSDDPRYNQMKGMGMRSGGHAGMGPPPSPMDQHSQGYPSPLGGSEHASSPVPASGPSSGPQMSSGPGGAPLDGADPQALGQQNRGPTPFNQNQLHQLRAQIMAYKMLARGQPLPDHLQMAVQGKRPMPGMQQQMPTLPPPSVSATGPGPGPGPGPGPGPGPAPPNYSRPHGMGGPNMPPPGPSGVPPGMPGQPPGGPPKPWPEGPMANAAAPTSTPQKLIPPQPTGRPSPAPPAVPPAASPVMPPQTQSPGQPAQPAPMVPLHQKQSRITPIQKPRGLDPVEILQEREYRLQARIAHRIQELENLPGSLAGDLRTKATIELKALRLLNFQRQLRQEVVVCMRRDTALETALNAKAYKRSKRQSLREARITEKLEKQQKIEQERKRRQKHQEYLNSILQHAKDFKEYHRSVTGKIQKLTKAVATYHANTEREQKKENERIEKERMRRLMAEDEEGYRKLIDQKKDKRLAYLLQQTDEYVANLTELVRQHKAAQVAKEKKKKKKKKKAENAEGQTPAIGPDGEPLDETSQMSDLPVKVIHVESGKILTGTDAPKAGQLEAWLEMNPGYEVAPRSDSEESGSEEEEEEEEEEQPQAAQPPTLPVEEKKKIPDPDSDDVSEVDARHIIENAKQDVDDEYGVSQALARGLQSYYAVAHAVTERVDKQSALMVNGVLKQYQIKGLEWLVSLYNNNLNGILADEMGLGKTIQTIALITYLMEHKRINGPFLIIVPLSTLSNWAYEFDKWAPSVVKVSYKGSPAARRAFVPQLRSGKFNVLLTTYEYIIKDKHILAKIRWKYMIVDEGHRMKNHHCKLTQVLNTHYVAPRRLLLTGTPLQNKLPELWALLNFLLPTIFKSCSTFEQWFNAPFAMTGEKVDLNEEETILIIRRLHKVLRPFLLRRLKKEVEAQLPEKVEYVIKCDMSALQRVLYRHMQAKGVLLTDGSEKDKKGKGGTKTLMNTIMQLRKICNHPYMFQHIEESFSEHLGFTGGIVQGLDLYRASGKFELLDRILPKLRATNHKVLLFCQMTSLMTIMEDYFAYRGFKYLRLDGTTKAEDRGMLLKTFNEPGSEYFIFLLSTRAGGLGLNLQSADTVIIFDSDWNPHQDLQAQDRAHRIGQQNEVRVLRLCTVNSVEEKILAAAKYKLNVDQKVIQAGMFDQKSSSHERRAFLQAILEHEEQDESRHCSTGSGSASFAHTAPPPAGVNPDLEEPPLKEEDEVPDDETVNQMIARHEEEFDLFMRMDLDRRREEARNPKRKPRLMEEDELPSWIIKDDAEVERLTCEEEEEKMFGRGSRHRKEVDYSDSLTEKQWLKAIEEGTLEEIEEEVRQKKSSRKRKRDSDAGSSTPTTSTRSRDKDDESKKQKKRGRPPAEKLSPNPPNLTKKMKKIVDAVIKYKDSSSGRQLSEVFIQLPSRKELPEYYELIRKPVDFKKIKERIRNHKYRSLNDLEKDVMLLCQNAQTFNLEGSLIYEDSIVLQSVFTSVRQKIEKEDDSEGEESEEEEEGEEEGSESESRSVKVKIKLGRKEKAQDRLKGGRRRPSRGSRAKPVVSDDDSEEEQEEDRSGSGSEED
# How it was run: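 HeLa cells stably expressing HiBiT-BRG1 and LgBiT, 5000 per well, compound-treated 24 h, equilibrated 15 min at room temperature, then lysed with LgBiT-containing Nano-Glo HiBiT lytic reagent and luminescence read. % degradation normalised between DMSO (high control) and 2 μM reference BRM/BRG1 degrader (low control).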
DC50 (HiBit-BRM fusion protein),Dmax [1],DC50 ([1]; read-out: BRMG1 HiBit Degradation IC50),SMILES,BRM HiBit Degradation Maximum (%) (HiBit-BRM fusion protein)
> 10 nM,< 50%,,"CNC(=O)[C@@H]1C[C@@H](O)CN1C(=O)[C@@H](c1cc(N2CC3(CC(c4cc5nnc(-c6ccccc6O)cc5n4C4CCC4)C3)C2)no1)C(C)C [Compound 61, (2S,4R)-1-((R)-2-(3-(6-(5-cyclobutyl-3-(2-hydroxyphenyl)-5H-pyrrolo[3,2-c]pyridazin-6-yl)-2-azaspiro[3.3]heptan-2-yl)isoxazol-5-yl)-3-methylbutanoyl)-4-hydroxy-N-methylpyrrolidine-2-carboxamide]",A (“A” indicates maximum degradation ≥75%)
< 10 nM,> 50%,> 10 nM,"Cc1ncsc1-c1ccc([C@H](C)NC(=O)[C@@H]2C[C@@H](O)CN2C(=O)[C@@H](c2cc(-c3cnc(N4CC5(CC(c6cc7nnc(-c8ccccc8O)cc7n6C6CCC6)C5)C4)nc3)no2)C(C)C)cc1 [Compound 62, (2S,4R)-1-((R)-2-(3-(2-(6-(5-cyclobutyl-3-(2-hydroxyphenyl)-5H-pyrrolo[3,2-c]pyridazin-6-yl)-2-azaspiro[3.3]heptan-2-yl)pyrimidin-5-yl)isoxazol-5-yl)-3-methylbutanoyl)-4-hydroxy-N-((S)-1-(4-(4-methylthiazol-5-yl)phenyl)ethyl)pyrrolidine-2-carboxamide]",A (“A” indicates maximum degradation ≥75%)
> 10 nM,< 50%,,"CC(C)[C@@H](C(=O)N1C[C@H](O)C[C@H]1C(=O)N[C@@H](C)c1ccc(F)cc1)c1cc(N2CC3(CC(c4cc5nnc(-c6ccccc6O)cc5n4C4CCC4)C3)C2)no1 [Compound 63, (2S,4R)-1-((R)-2-(3-(6-(5-cyclobutyl-3-(2-hydroxyphenyl)-5H-pyrrolo[3,2-c]pyridazin-6-yl)-2-azaspiro[3.3]heptan-2-yl)isoxazol-5-yl)-3-methylbutanoyl)-N-((S)-1-(4-fluorophenyl)ethyl)-4-hydroxypyrrolidine-2-carboxamide]",A (“A” indicates maximum degradation ≥75%)
< 10 nM,< 50%,,"Cc1ncsc1-c1ccc([C@H](C)NC(=O)[C@@H]2C[C@@H](O)CN2C(=O)[C@@H](c2cc(-c3cnc(N4CC5(CC(c6cc7nnc(-c8ccccc8O)cc7n6C67CC(C6)C7)C5)C4)nc3)no2)C(C)C)cc1 [Compound 64, (2S,4R)-1-((R)-2-(3-(2-(6-(5-(bicyclo[1.1.1]pentan-1-yl)-3-(2-hydroxyphenyl)-5H-pyrrolo[3,2-c]pyridazin-6-yl)-2-azaspiro[3.3]heptan-2-yl)pyrimidin-5-yl)isoxazol-5-yl)-3-methylbutanoyl)-4-hydroxy-N-((S)-1-(4-(4-methylthiazol-5-yl)phenyl)ethyl)pyrrolidine-2-carboxamide]",A (“A” indicates maximum degradation ≥75%)
< 10 nM,< 50%,,"Cc1ncsc1-c1ccc([C@H](C)NC(=O)[C@@H]2C[C@@H](O)CN2C(=O)[C@@H](c2cc(N3CC4(CC(c5cc6nnc(-c7ccccc7O)cc6n5C56CC(C5)C6)C4)C3)no2)C(C)C)cc1 [Compound 65, (2S,4R)-1-((R)-2-(3-(6-(5-(bicyclo[1.1.1]pentan-1-yl)-3-(2-hydroxyphenyl)-5H-pyrrolo[3,2-c]pyridazin-6-yl)-2-azaspiro[3.3]heptan-2-yl)isoxazol-5-yl)-3-methylbutanoyl)-4-hydroxy-N-((S)-1-(4-(4-methylthiazol-5-yl)phenyl)ethyl)pyrrolidine-2-carboxamide]",A (“A” indicates maximum degradation ≥75%)
